Assay results as given in patent US20150366847A1, “COMBINATION OF GERANYLGERANYLACETONE AND IBUDILAST AND METHODS OF USING SAME” (MediciNova, Inc., priority 2014, published 2015).

Key:
[1] = test system: heat shock protein 70 (HSP70); details: mice subjected to an occlusion of the middle cerebral artery; cited from earlier work
[2] = test system: animal model for Parkinson's disease; test: Rat model of Parkinson's disease, brain mass; assay type: in vivo
[3] = test system: animal model for ALS; test: Rat model of ALS, brain mass; assay type: in vivo

Structure (SMILES)	induction of heat shock protein 70 (HSP70) [1]	brain mass [2]	brain mass [3]
CC(=O)CCC=C(C)CC/C=C(\C)CC/C=C(\C)CCC=C(C)C (mixture of isomers) [GGA, Geranylgeranyl acetone]	inducer of heat shock protein 70 (HSP70)	–	–
CC(C)C(=O)c1c(C(C)C)nn2ccccc12 [ibudilast, 3-isobutyryl-2-isopropylpyrazolo[1,5-a]pyridine]	–	increase brain mass	increase brain mass
